Assay results reported in paper PMC9497102, “Thiosemicarbazone Derivatives Developed to Overcome COTI-2 Resistance” (Cancers, 2022).

Experiments:
[1] = Parallel artificial membrane permeability assay (PAMPA); assay type: in vitro ADME; conditions: pH 7.4, 25 °C, read-out: Peff
Protocol: The thermodynamic solubility of COTI-NMeCy, COTI-Nme2, COTI-NH2, and COTI-2 was measured for the saturated solutions in water at pH 7.4 (20 mM HEPES buffer) at 25.0 ± 0.1 °C. The concentrations of the compounds were determined by UV-vis spectrophotometry using stock solutions of the compounds with known concentrations dissolved in pure DMSO, and 50% and 1% (v/v) DMSO/buffered aqueous solution for the calibration. The parallel artificial membrane permeability assay (PAMPA) was applied for the ligands with a Corning Gentest pre-coated PAMPA Plate System. Peff values were calculated according to the equation reported by Yu et al..

SW480/Coti cells [2] = experiment: MTT viability assay with ABCB1/ABCC1 inhibitors verapamil and CSA; assay type: cell-based, human; conditions: 1 µM CSA and 10 µM verapamil, 72 h
Protocol: For the cytotoxicity, cell viability, and proliferation studies, the 3-(4,5-dimethylthiazol-2-yl)-2,5-diphenyltetrazolium bromide (MTT) assay was utilized. Cells were seeded in 96-well plates at a density of 2 × 10^4 cells/well, with the exception of SW480/Tria, which was used at a density of 3 × 10^4 cells/well. After 24 h of recovery, cells were treated with the indicated concentration of drugs. For the drug combination experiments, verapamil and cyclosporine A (CSA) were used as […] modulators, and tetrathiomolybdate (TTM) was used as a copper chelator. The TSCs were dissolved in DMSO followed by subsequent dilutions in the medium in order to maintain a final DMSO concentration of <1%. After 72 h, the treatment solution was removed and replaced with 100 µL of MTT solution (EZ4U, Biomedica, Vienna, Austria), which was diluted 1:10 in the growth medium. A TECAN Infinite 200 Pro plate reader was used to measure the absorbance of the solution after 2–3 h incubation at 5% CO2 in an incubator at 37 °C. The anticancer activity was determined with GraphPad Prism software and indicated as IC50 values (half maximum inhibitory concentration).

[3] = Cyclic voltammetry of iron(III)–ligand (1:2) systems; assay type: physicochemical; conditions: cL = 1 mM, pH 7.40, 25 °C, 90% (v/v) DMSO/H2O, 0.01 V/s scan rate
Protocol: Cyclic voltammograms for the Fe(III) and Cu(II) complexes were recorded in 90% (v/v) DMSO/water solution containing 1 mM ligand and 0.5 mM FeCl3 or 1 mM CuCl2 using a conventional three-electrode system under nitrogen atmosphere and a PC-Controlled Electrochemical Measurement System (EF 451). The ionic strength was 0.10 M, adjusted by TBAN. Samples were purged for 15 min with Ar before recording the cyclic voltammograms. Platinum electrodes were used as the working and auxiliary electrodes, and Ag/AgCl (3 M KCl) was applied as the reference electrode. The electrochemical potentials were converted into the normal hydrogen electrode (NHE) scale by adding 0.222 V. The instrument was calibrated with an aqueous solution of K3[Fe(CN)6] (E1/2 = +0.386 V vs. NHE). Redox potentials were obtained at different scan rates (5–25 mV/s) in the range of −0.8 to +0.1 V. The dependence of the peak current values of the square root of the scan rates is shown in Figure S5 for the iron and copper complexes of COTI-NMeCy.

SW480/Coti cells [4] = test system: SW480/Coti cells; design: method as in PMID 33190481; conditions: 72 h, MTT; cited from earlier work

| Structure (SMILES) | Papp [1] | impact of verapamil and CSA on activity (SW480/Coti cells [2]) | E’ vs. NHE, iron(III)–ligand (1:2) systems [3] | IC50 (SW480/Coti cells [4]) |
| --- | --- | --- | --- | --- |
| CN(C)C(=S)NN=C1CCCc2cccnc21 (mixture of isomers) [COTI-NMe2, 2-(6,7-Dihydroquinolin-8(5H)-ylidene)-N^4,N^4-dimethylhydrazine-1-carbothioamide] | 16 ± 0.1 ×10⁻⁶ cm/s | no relevant impact | – | – |
| S=C(N/N=C1\CCCc2cccnc21)N1CCN(c2ccccn2)CC1 [COTI-2, 4-(pyridine-2-yl)-N-([(8E)-5,6,7,8-tetrahydroquinolin-8-ylidene]amino)piperazine-1-carbothioamide] | – | – | +0.11 V | 9.51 ± 3.11 µM |
